Test results reported in patent publication US7696129B2, “Substituted aromatic amide derivative, intermediate thereof, agrohorticultural insecticide containing thereof and method for the use thereof” (Nihon Nohyaku Co., Ltd., priority 2001, dated 2010).

Experiments:
Type in all cases: in vivo
[1] = tested on: Diamond Back Moth (Plutella xylostella); test: Test Example 1: insecticidal effect on diamond back moth, immersion of Chinese cabbage seedling with eggs; settings: 50 ppm, seedling with eggs immersed about 30 seconds, 25° C., six days after the immersion
Description: Insecticidal Effect on Diamond Back Moth (Plutella xylostella)
Adult diamond back moths were released and allowed to oviposit on a Chinese cabbage seedling. Two days after the release, the seedling having the eggs deposited thereon was immersed for about 30 seconds in a liquid chemical prepared by diluting a preparation containing each compound listed in Tables 4 to 9 as an active ingredient to adjust the concentration to 50 ppm. After air-dryness, it was allowed to stand in a room thermostatted at 25° C. Six days after the immersion, the hatched insects were counted. The mortality was calculated according to the following equation and the insecticidal effect was judged according to the criterion shown below. The test was carried out with triplicate groups of 10 insects.

[2] = tested on: Common Cutworm (Spodoptera litura); test: Test Example 2: insecticidal effect on common cutworm, cabbage leaf immersion; settings: 50 ppm, cabbage leaf immersed about 30 seconds, second-instar larvae, 25° C., eight days after the inoculation
Description: Insecticidal Effect on Common Cutworm (Spodoptera litura)
A piece of cabbage leaf (cultivar; Shikidori) was immersed for about 30 seconds in a liquid chemical prepared by diluting a preparation containing each compound listed in Tables 4 to 9 as an active ingredient to adjust the concentration to 50 ppm. After air-dryness, it was placed in a plastic Petri dish with a diameter of 9 cm and inoculated with second-instar larvae of common cutworm, after which the dish was closed and then allowed to stand in a room thermostatted at 25° C. Eight days after the inoculation, the dead and alive were counted. The mortality was calculated according to the following equation and the insecticidal effect was judged according to the criterion shown in Test Example 1. The test was carried out with triplicate groups of 10 insects.

[3] = tested on: Smaller Tea Tortrix (Adxophyes sp.); test: Test Example 3: insecticidal effect on smaller tea tortrix, tea leaf immersion; settings: 50 ppm, tea leaves immersed about 30 seconds, larvae, 25° C., humidity 70%, eight days after the inoculation
Procedure: Insecticidal Effect on Smaller Tea Tortrix (Adxophyes sp.)
Tea leaves were immersed for about 30 seconds in a liquid chemical prepared by diluting a preparation containing each compound listed in Tables 1 to 3 as an active ingredient to adjust the concentration to 50 ppm. After air-dryness, the tea leaves were placed in a plastic Petri dish with a diameter of 9 cm and inoculated with larvae of smaller tea tortrix, after which the dish was allowed to stand in a room thermostatted at 25° C. and having a humidity of 70%. Eight days after the inoculation, the dead and alive were counted and the insecticidal effect was judged according to the criterion shown in Test Example 1. The test was carried out with triplicate groups of 10 insects.

Row | Structure (SMILES) | Test Example 1 (insecticidal effect, mortality criterion) [1] | Test Example 2 (insecticidal effect, mortality criterion) [2] | Test Example 3 (insecticidal effect, mortality criterion) [3]
1 | Cc1cc(C(C(F)(F)F)C(F)(F)F)ccc1NC(=O)c1cccc(C(F)(F)F)c1C(=O)NC(C)(C)C[S+](C)[O-] (stereo not drawn) [5-42] | A (Mortality 100%) | A (Mortality 100%) | A (Mortality 100%)
2 | Cc1cc(C(C(F)(F)F)C(F)(F)F)ccc1NC(=O)c1cccc(C(F)(F)F)c1C(=O)NC(C)(C)CS(C)(=O)=O [5-43] | A (Mortality 100%) | A (Mortality 100%) | A (Mortality 100%)
3 | CCN(CC)C(=O)OCC(C)NC(=O)c1c(C(=O)Nc2ccc(C(C(F)(F)F)C(F)(F)F)cc2C)cccc1C(F)(F)F (stereo not drawn) [5-44] | A (Mortality 100%) | A (Mortality 100%) | A (Mortality 100%)
4 | CSCC(C)(C)NC(=O)c1c(C(=O)Nc2ccc(C(C(F)(F)F)C(F)(F)F)cc2C)ccc(Cl)c1Cl [5-45] | A (Mortality 100%) | A (Mortality 100%) | A (Mortality 100%)
5 | CCc1cc(C(C(F)(F)F)C(F)(F)F)ccc1NC(=O)c1cccc(I)c1C(=O)NC(C)C [5-46] | A (Mortality 100%) | A (Mortality 100%) | A (Mortality 100%)
6 | CCc1cc(C(C(F)(F)F)C(F)(F)F)ccc1NC(=O)c1cccc(I)c1C(=O)NC(C)(C)CSC [5-47] | A (Mortality 100%) | A (Mortality 100%) | A (Mortality 100%)
7 | CSCC(C)(C)NC(=O)c1c(I)cccc1C(=O)Nc1ccc(C(C(F)(F)F)C(F)(F)F)cc1C(C)(C)C [5-48] | A (Mortality 100%) | E (Mortality 49% or less) | E (Mortality 49% or less)
8 | C[S+]([O-])CC(C)(C)NC(=O)c1c(I)cccc1C(=O)Nc1ccc(C(C(F)(F)F)C(F)(F)F)cc1C(C)(C)C (stereo not drawn) [5-49] | A (Mortality 100%) | E (Mortality 49% or less) | E (Mortality 49% or less)
9 | CC(C)NC(=O)c1c(I)cccc1C(=O)Nc1ccc(C(C(F)(F)F)C(F)(F)F)cc1F [5-50] | A (Mortality 100%) | A (Mortality 100%) | A (Mortality 100%)
10 | CC(C)NC(=O)c1c(I)cccc1C(=O)Nc1ccc(C(C(F)(F)F)C(F)(F)F)cc1Cl [5-51] | A (Mortality 100%) | A (Mortality 100%) | A (Mortality 100%)
11 | CSCC(C)(C)NC(=O)c1c(I)cccc1C(=O)Nc1ccc(C(C(F)(F)F)C(F)(F)F)cc1Cl [5-52] | A (Mortality 100%) | A (Mortality 100%) | A (Mortality 100%)
12 | CSCC(C)(C)NC(=O)c1c(I)cccc1C(=O)Nc1ccc(C(C(F)(F)F)C(F)(F)F)cc1Br [5-53] | A (Mortality 100%) | A (Mortality 100%) | A (Mortality 100%)
13 | C[S+]([O-])CC(C)(C)NC(=O)c1c(I)cccc1C(=O)Nc1ccc(C(C(F)(F)F)C(F)(F)F)cc1Br (stereo not drawn) [5-54] | A (Mortality 100%) | A (Mortality 100%) | A (Mortality 100%)
14 | CSCC(C)(C)NC(=O)c1c(I)cccc1C(=O)Nc1ccc(C(C(F)(F)F)C(F)(F)F)cc1I [5-55] | A (Mortality 100%) | A (Mortality 100%) | A (Mortality 100%)
15 | C[S+]([O-])CC(C)(C)NC(=O)c1c(I)cccc1C(=O)Nc1ccc(C(C(F)(F)F)C(F)(F)F)cc1I (stereo not drawn) [5-56] | A (Mortality 100%) | C (Mortality 89-80%) | A (Mortality 100%)
16 | CSCC(C)(C)NC(=O)c1c(I)cccc1C(=O)Nc1ccc(C(C(F)(F)F)C(F)(F)F)cc1C#N [5-57] | A (Mortality 100%) | A (Mortality 100%) | A (Mortality 100%)
17 | C[S+]([O-])CC(C)(C)NC(=O)c1c(I)cccc1C(=O)Nc1ccc(C(C(F)(F)F)C(F)(F)F)cc1C#N (stereo not drawn) [5-58] | A (Mortality 100%) | A (Mortality 100%) | A (Mortality 100%)
18 | CC(C)(CS(C)(=O)=O)NC(=O)c1c(I)cccc1C(=O)Nc1ccc(C(C(F)(F)F)C(F)(F)F)cc1C#N [5-59] | A (Mortality 100%) | A (Mortality 100%) | A (Mortality 100%)
19 | Cc1c(NC(=O)c2cccc(I)c2C(=O)NC(C)C)ccc(C(C(F)(F)F)C(F)(F)F)c1F [5-60] | A (Mortality 100%) | A (Mortality 100%) | A (Mortality 100%)
20 | CSCC(C)(C)NC(=O)c1c(I)cccc1C(=O)Nc1ccc(C(C(F)(F)F)C(F)(F)F)c(F)c1C [5-61] | A (Mortality 100%) | A (Mortality 100%) | A (Mortality 100%)
21 | Cc1cc(C(C(F)(F)F)C(F)(F)F)c(F)cc1NC(=O)c1cccc(I)c1C(=O)NC(C)C [5-62] | A (Mortality 100%) | A (Mortality 100%) | A (Mortality 100%)
22 | CSCC(C)(C)NC(=O)c1c(I)cccc1C(=O)Nc1cc(F)c(C(C(F)(F)F)C(F)(F)F)cc1C [5-63] | A (Mortality 100%) | A (Mortality 100%) | A (Mortality 100%)
